Results as given in publication PMC9405596, “Evaluation of the Anti-Leishmania mexicana and -Trypanosoma brucei Activity and Mode of Action of 4,4′-(Arylmethylene)bis(3-methyl-1-phenyl-1H-pyrazol-5-ol)” (Biomedicines, 2022).
Read-outs that look alike come from different tables or passages of the source.

Key:
[1] = MTT cytotoxicity assay, murine macrophages; assay type: cell-based; settings: mouse, RAW 264.7 macrophage cells, RAW 264.7, 48 h
Procedure: (§1) Murine macrophages (cell line RAW 264.7, ATCC® TIB-71™) were grown in Dulbecco’s Modified Eagle Medium (DMEM) (Gibco, Invitrogen, Waltham, MA, USA) supplemented with 10% fetal bovine serum (FBS) (Eurobio) and 100 IU/mL penicillin + 100 µg/mL streptomycin (Gibco), at 37 °C, in an atmosphere containing 5% CO2. Human hepatocyte cell line HepG2 (ATCC® HB-8065™) was grown in MEM (Gibco, Invitrogen) supplemented with 10% FBS (Gibco, Invitrogen), 1% NEAA (Gibco, Invitrogen), and 1% L-glutamine (Gibco, Invitrogen). The medium was renewed twice a week. For both cell lines, the viability was determined using the MTT assay as described before for leishmanicidal activity assessment, with some variations. Here, 5 × 10^4 cells/well in a final volume of 100 µL were seeded into a 96-well plate, in triplicate for RAW macrophages and in duplicate for HepG2. Saponin (2.4 mg/mL) and untreated cells were used as positive control and negative control, respectively. Compounds were dissolved in DMSO to obtain different serial concentrations (1.56 to 800 µM) for RAW macrophages and 100–0.001 µM for HepG2. The final concentration of DMSO in each well was 0.5%. After exposure to compounds for 48 h and 72 h for RAW and HepG2 cells, respectively, 10 µL/well of MTT (5 mg/mL in PBS) was added, incubated at 37 °C for 2 h in darkness, and cells were pelleted via centrifugation at 4400 rpm for 10 min. The medium was removed, and 100 µL/well of DMSO was added to dissolve formazan. The absorbance at 570 and 630 nm was recorded following the same procedure as with parasites.

[2] = tested on: L. mexicana promastigotes; assay: MTT viability assay against L. mexicana promastigotes; assay type: cell-based, Leishmania mexicana; settings: for IC50: 48 h; for L. mexicana Promastigote SI vs. Hepatocytes: CC50 HepG2 hepatocytes/IC50 L. mexicana; for L. mexicana Promastigote SI vs. Macrophage: CC50 RAW macrophages/IC50 L. mexicana
Procedure: The leishmanicidal activity against promastigotes from L. mexicana was evaluated by measuring parasites’ mitochondrial activity using the MTT (Thiazolyl Blue Tetrazolium Bromide) colorimetric assay as described previously. […] The medium was renewed every third day and subcultures were prepared when parasite density reached 1 × 10^7 parasites/mL. A Neubauer chamber was used to determine parasite density.

[3] = MTT cytotoxicity assay, HepG2; assay type: cell-based; settings: human, HepG2 cells, HepG2, 72 h, read-out: CC50 HepG2 Hepatocytes
Procedure: as §1

[4] = tested on: bloodstream form of T. b. brucei (strain 427); assay: Bioluminescence viability assay against bloodstream T. b. brucei expressing luciferase; settings: for T. brucei SI vs. Hepatocytes: CC50 HepG2 hepatocytes/IC50 T. brucei; for T. brucei bloodstream SI vs. Macrophages: CC50 RAW macrophages/IC50 T. brucei; for IC50 / activity at 10 µM: 24 h; for activity at 10 µM: read-out: T. brucei bloodstream % Growth (10 µM), 10 µM, 24 h; for SI against T. brucei, range over both mammalian cell lines: murine macrophages and HepG2 hepatocytes
[5] = tested on: bloodstream T. b. brucei; assay: Microscopic observation of cell motility; assay type: cell-based, Trypanosoma brucei brucei; settings: 0.9 µM, 24 h, vs vehicle-treated parasites
[6] = tested on: hGrx1-roGFP2 redox biosensor in bloodstream T. brucei brucei; assay: In-cell redox assay with hGrx1-roGFP2 biosensor (flow cytometry); settings: compound at its IC50, 1 h; for intracellular biosensor oxidation: relative to diamide (full oxidation) and DTT (reduction)
[7] = tested on: recombinant roGFP2 biosensor; assay: In vitro fluorescence assay with recombinant roGFP2 biosensor; assay type: biochemical; settings: 50 µM compound, 5 µM biosensor, 1 h
Procedure: The His-tagged recombinant form of a roGFP2 biosensor was expressed and purified from Escherichia coli (strain C41). An overnight pre-culture (LB medium + 50 µg/mL kanamycin, 220 rpm at 37 °C) of transformed cells was diluted 1:100 in fresh 2YT medium with 50 µg/mL kanamycin, and grown at 220 rpm and 37 °C until reaching an OD600 of ~0.8. At this time point, the culture was supplemented with IPTG (end concentration 1 mM) and the incubation was extended overnight at 100 rpm, 20 °C. Cells were harvested by centrifugation at 5000× g for 10 min at 4 °C and the cell pellet was resuspended in Buffer A (50 mM sodium phosphate, pH 8.0, 300 mM NaCl) at a ratio of 5 mL buffer per gram of pellet. Lysozyme (50 mg/mL) and DNAse (15 U/mL; Roche) were added to the cell homogenate and the suspension was incubated for 1 h on ice. Next, cells were sonicated for 2 min (30 s on/off pulses at an amplitude of 40%) and the lysate was centrifuged twice at 23,000× g, 4 °C, for 1 h. The clarified supernatant was filtered (0.4 µm filter) and applied to a 5 mL HisTrap column (GE Healthcare, Chicago, IL, USA) pre-equilibrated with Buffer A. The column was washed with 15 mL of Buffer A and then with 15 mL of Buffer A + 20 mM Imidazole. The recombinant protein was eluted from the column with Buffer A + 500 mM Imidazole. The elution fractions containing the biosensor (optical observation) were pooled and buffer exchanged against Buffer A using a PD-10 column (G25-sepharose, GE Healthcare). In order to remove the His-tag, the recombinant protein was digested overnight (4 °C) using 4.5 mg/mL TEV protease in Buffer A containing 5 mM DTT and 2 mM EDTA. Finally, the digested sample was applied to a 5 mL HisTrap column pre-equilibrated with Buffer A, and the flow-through containing the un-tagged biosensor was collected. The purity of the recombinant biosensor was evaluated by SDS-PAGE, and the protein concentration estimated by measuring absorbance at 280 nm (ε^280 23.290 M^−1cm^−1) in a Nanodrop DS-11 FX device. Upon purification, the biosensor was obtained in an oxidized state, as assessed via spectrofluorimetry (see below).
For the fluorescence assays, the recombinant biosensor was used at a final concentration of 5 µM and compounds at 50 µM in Buffer A with DMSO (final concentration 1%). DTT was added at 10 mM for achieving full biosensor reduction. Fluorescence spectra ([…] and emission) were recorded using a Cary Eclipse equipment. […]

[8] = set-up: method as in PMID 34082794; settings: ref [17]; cited from earlier work
[9] = tested on: Human hepatocyte cell line HepG2; settings: read-out: CC50 HepG2 Hepatocytes, ref [47]; cited from earlier work
[10] = Leishmania mexicana, read-out: L. mexicana Promastigote IC50, promastigotes, 48 h, MTT
[11] = Trypanosoma brucei, read-out: T. brucei bloodstream IC50, 24 h, bioluminescence
[12] = read-out: T. brucei bloodstream IC50, bioluminescence

With `Cc1nn(-c2ccccc2)c(O)c1C(c1ccc(O)cc1O)c1c(C)nn(-c2ccccc2)c1O` [Compound 2y, 4,4′-[(2,4-dihydroxyphenyl)methylene]bis(3-methyl-1-phenyl-1H-pyrazol-5-ol)] the CC50 at 48 h [1] was 170 ± 1 µM, the IC50 [2, 10] was > 50 µM and the CC50 at 72 h [3] was > 100 µM. For the same compound, the “T. brucei SI vs. Hepatocytes” value [4] was >111, the “T. brucei bloodstream SI vs. Macrophages” value [4] was 189 and the IC50 [4, 11] was 0.9 ± 0.2 µM. For the same compound, the “cell motility by microscopic observation” value [5] was “did not reveal an impairment of cell motility”.
For `Cc1nn(-c2ccccc2)c(O)c1C(c1cccc(C(F)(F)F)c1)c1c(C)nn(-c2ccccc2)c1O` [Compound 2w, 4,4′-[(3-trifluoromethylphenyl)methylene]bis(3-methyl-1-phenyl-1H-pyrazol-5-ol)], the CC50 at 48 h [1] was 61 ± 4 µM, the “L. mexicana Promastigote SI vs. Hepatocytes” value [2] was 6.5 and the “L. mexicana Promastigote SI vs. Macrophage” value [2] was 15.2. The intracellular biosensor oxidation [6] was 63%, the “biosensor oxidation vs. DMSO” value [6] was 30% and the “direct oxidation of the reduced recombinant biosensor” value [7] was “did not induce direct oxidation”. The “prevention of biosensor oxidation (oxidized form)” value (shortened to “prevention of biosensor oxidation”) [7] was 11–13%, the CC50 at 72 h [3] was 26 ± 3 µM and the “T. brucei SI vs. Hepatocytes” value [4] was 2.9. For the same compound, the “T. brucei bloodstream SI vs. Macrophages” value [4] was 6.8, the activity at 10 µM ([4]; Trypanosoma brucei) was ≤ 50% and the IC50 [4, 11] was 9 µM. For the same compound, the IC50 [4, 12] was 8.9 ± 0.7 µM.
With `Cc1nn(-c2ccccc2)c(O)c1C(c1cc(C(F)(F)F)cc(C(F)(F)F)c1)c1c(C)nn(-c2ccccc2)c1O` [Compound 2x, 4,4′-{[3,5-bis(trifluoromethyl)phenyl]methylene}bis(3-methyl-1-phenyl-1H-pyrazol-5-ol)] the CC50 at 48 h [1] was 34 ± 5 µM, the “L. mexicana Promastigote SI vs. Hepatocytes” value [2] was 4.3 and the “L. mexicana Promastigote SI vs. Macrophage” value [2] was 4.8. The IC50 [2, 10] was ≤ 10 µM, the IC50 ([2]; read-out: L. mexicana Promastigote IC50, promastigotes, MTT) was 7 ± 2 µM and the intracellular biosensor oxidation [6] was 95%. For the same compound, the “biosensor oxidation vs. DMSO” value [6] was 63%, the “direct oxidation of the reduced recombinant biosensor” value [7] was “did not induce direct oxidation” and the “prevention of biosensor oxidation” value [7] was 11–13%. For the same compound, the CC50 at 72 h [3] was 30 ± 2 µM, the “T. brucei SI vs. Hepatocytes” value [4] was 16 and the “T. brucei bloodstream SI vs. Macrophages” value [4] was 18. The IC50 [4, 11] was 1.9 ± 0.9 µM and the “SI against T. brucei, range over both mammalian cell lines” value [4] was 11.6–18.
In the case of `Cc1nn(-c2ccccc2)c(O)c1C(c1ccc(O)c(O)c1)c1c(C)nn(-c2ccccc2)c1O` [Compound 2n], the CC50 at 48 h [1] is reported as 70 ± 7 µM, the “L. mexicana Promastigote SI vs. Hepatocytes” value [2] is reported as >14.3 and the IC50 [2, 10] is reported as 7 ± 1 µM. For the same compound, the CC50 at 72 h [3] was > 100 µM, the “T. brucei SI vs. Hepatocytes” value [4] was >9.8 and the “T. brucei bloodstream SI vs. Macrophages” value [4] was 7. For the same compound, the activity at 10 µM ([4]; Trypanosoma brucei) was ≤ 50%, the IC50 [4, 11] was 10 µM and the IC50 [4, 12] was 10.2 ± 1.75 µM. For the same compound, the “radical scavenging activity relative to ascorbic acid” value [8] was “higher”.
In the case of `COc1cccc(C(c2c(C)nn(-c3ccccc3)c2O)c2c(C)nn(-c3ccccc3)c2O)c1` [Compound 2i], the CC50 at 48 h [1] is reported as 232 ± 25 µM, the “L. mexicana Promastigote SI vs. Hepatocytes” value [2] is reported as >10 and the “L. mexicana Promastigote SI vs. Macrophage” value [2] is reported as 23.2. The IC50 [2, 10] was 10 ± 3 µM, the melting point was 205.7 to 207.1 °C and the CC50 at 72 h [3] was > 100 µM. The “anti-T. brucei activity in preliminary screening, in words” value ([4]; 10 µM) was “inactive” and the activity at 10 µM ([4]; Trypanosoma brucei) was > 100%.
For `Cc1nn(-c2ccccc2)c(O)c1C(c1ccc(C(F)(F)F)cc1)c1c(C)nn(-c2ccccc2)c1O` [Compound 2r], the CC50 at 48 h [1] was 54 ± 3 µM, the “L. mexicana Promastigote SI vs. Hepatocytes” value [2] was 6.1 and the “L. mexicana Promastigote SI vs. Macrophage” value [2] was 16.4. The intracellular biosensor oxidation [6] was 56%, the “biosensor oxidation vs. DMSO” value [6] was 23% and the “direct oxidation of the reduced recombinant biosensor” value [7] was “did not induce direct oxidation”. The “prevention of biosensor oxidation” value [7] was 11–13%, the CC50 at 72 h [3] was 20 ± 4 µM and the “T. brucei SI vs. Hepatocytes” value [4] was 2.0. The “T. brucei bloodstream SI vs. Macrophages” value [4] was 5.4, the activity at 10 µM ([4]; Trypanosoma brucei) was ≤ 50% and the IC50 [4, 11] was 10 ± 3 µM. The “radical scavenging activity relative to ascorbic acid” value [8] was “higher”.
For `Cc1nn(-c2ccccc2)c(O)c1C(c1cc(O)ccc1[N+](=O)[O-])c1c(C)nn(-c2ccccc2)c1O` [Compound 2h], the CC50 at 48 h [1] was 108 ± 22 µM, the “L. mexicana Promastigote SI vs. Hepatocytes” value [2] was >4.8 and the “L. mexicana Promastigote SI vs. Macrophage” value [2] was 5.1. The IC50 [2, 10] was 21 ± 4 µM, the melting point was 205 to 207 °C (dec.) and the CC50 at 72 h [3] was > 100 µM. For the same compound, the activity at 10 µM ([4]; Trypanosoma brucei) was 89 ± 3%.
With `CC1CS(=O)(=O)CCN1/N=C/c1ccc([N+](=O)[O-])o1` (centres unmarked) [Nifurtimox, reference compound] the CC50 at 48 h [1] was > 100 µM, the “T. brucei SI vs. Hepatocytes” value [4] was 13 and the IC50 [4, 11] was 3.5 µM. The “SI against T. brucei, range over both mammalian cell lines” value [4] was 13–28.5 and the CC50 [9] was 45 ± 1 µM.
